Activity calls are given as the source filed them. The calls are words filed in the database; no cut-off is given here.
Key:
[1] = Compound tested for the inhibition of ADP-ribosylation in protein synthesis; Inactive; assay type: functional
[2] = Compound tested for the inhibition of IMP-dehydrogenase causing a profound depletion of GMP anf accumulation of IMP; Active; assay type: functional
CCRF-CEM = assay: In vitro inhibitory activity against the growth of CCRF-CEM tumor cells at a concentration of 13.0 ug/mL; Inactive; assay type: functional, cell-based; details: Homo sapiens
HL-60 = assay: In vitro inhibitory activity against the growth of HL-60 tumor cells at a concentration of 24.0 ug/mL; Inactive; assay type: functional, cell-based; details: Homo sapiens
P815 = assay: In vitro inhibitory activity against the growth of P-815 tumor cells at a concentration of 16.0 ug/mL; Inactive; assay type: functional, cell-based; details: Mus musculus
MOLT-3 = assay: In vitro inhibitory activity against the growth of F-Molt-3 tumor cells at a concentration of 15.0 ug/mL; Inactive; assay type: functional, cell-based; details: Homo sapiens

Structure (SMILES) | Activity [1] | Activity [2] | further results
C[n+]1cc(C(N)=O)cc([C@@H]2O[C@H](COP(=O)([O-])OP(=O)(O)OC[C@@H]3O[C@H](n4cnc5c(N)ncnc54)[C@@H](O)[C@H]3O)[C@@H](O)[C@H]2O)c1 | inactive | – | –
NC(=O)c1cncc([C@@H]2O[C@H](COP(=O)(O)OP(=O)(O)OC[C@@H]3O[C@H](n4cnc5c(N)ncnc54)[C@@H](O)[C@H]3O)[C@@H](O)[C@H]2O)c1 | inactive | – | –
NC(=O)c1csc([C@@H]2O[C@H](CO)[C@@H](O)[C@H]2O)n1 | – | Active | –
NC(=O)c1csc([C@H]2O[C@@H](COP(=O)(O)OP(=O)(O)OC[C@H]3O[C@@H](n4cnc5c(N)ncnc54)[C@H](O)[C@@H]3O)[C@H](O)[C@@H]2O)n1 | – | Active | –
C[n+]1cc(C(N)=O)cc(C2O[C@H](CO)[C@@H](O)[C@H]2O)c1 (single isomer, unassigned) | – | – | inhibition (CCRF-CEM): inactive; inhibition (HL-60): inactive; inhibition (P815): inactive; inhibition (MOLT-3): inactive

Reference: ChEMBL document CHEMBL1123746, “Synthesis of 5-beta-D-ribofuranosylnicotinamide and its N-methyl derivative. The isosteric and isoelectronic analogues of nicotinamide nucleoside” (1987)
